{"source": "paper PMC8500670", "about": "“A selective WDR5 degrader inhibits acute myeloid leukemia in patient-derived mouse models” (Science translational medicine, 2021)", "test_in_all_cases": "biochemical", "parameters_in_all_cases": "protein methyltransferase selectivity panel, enzyme activity relative to DMSO controls, single concentration in duplicate", "key": {"[1]": {"target": "T1, NSD2 (Homo sapiens, UniProt O96028)", "T1 sequence (O96028 1-1365)": "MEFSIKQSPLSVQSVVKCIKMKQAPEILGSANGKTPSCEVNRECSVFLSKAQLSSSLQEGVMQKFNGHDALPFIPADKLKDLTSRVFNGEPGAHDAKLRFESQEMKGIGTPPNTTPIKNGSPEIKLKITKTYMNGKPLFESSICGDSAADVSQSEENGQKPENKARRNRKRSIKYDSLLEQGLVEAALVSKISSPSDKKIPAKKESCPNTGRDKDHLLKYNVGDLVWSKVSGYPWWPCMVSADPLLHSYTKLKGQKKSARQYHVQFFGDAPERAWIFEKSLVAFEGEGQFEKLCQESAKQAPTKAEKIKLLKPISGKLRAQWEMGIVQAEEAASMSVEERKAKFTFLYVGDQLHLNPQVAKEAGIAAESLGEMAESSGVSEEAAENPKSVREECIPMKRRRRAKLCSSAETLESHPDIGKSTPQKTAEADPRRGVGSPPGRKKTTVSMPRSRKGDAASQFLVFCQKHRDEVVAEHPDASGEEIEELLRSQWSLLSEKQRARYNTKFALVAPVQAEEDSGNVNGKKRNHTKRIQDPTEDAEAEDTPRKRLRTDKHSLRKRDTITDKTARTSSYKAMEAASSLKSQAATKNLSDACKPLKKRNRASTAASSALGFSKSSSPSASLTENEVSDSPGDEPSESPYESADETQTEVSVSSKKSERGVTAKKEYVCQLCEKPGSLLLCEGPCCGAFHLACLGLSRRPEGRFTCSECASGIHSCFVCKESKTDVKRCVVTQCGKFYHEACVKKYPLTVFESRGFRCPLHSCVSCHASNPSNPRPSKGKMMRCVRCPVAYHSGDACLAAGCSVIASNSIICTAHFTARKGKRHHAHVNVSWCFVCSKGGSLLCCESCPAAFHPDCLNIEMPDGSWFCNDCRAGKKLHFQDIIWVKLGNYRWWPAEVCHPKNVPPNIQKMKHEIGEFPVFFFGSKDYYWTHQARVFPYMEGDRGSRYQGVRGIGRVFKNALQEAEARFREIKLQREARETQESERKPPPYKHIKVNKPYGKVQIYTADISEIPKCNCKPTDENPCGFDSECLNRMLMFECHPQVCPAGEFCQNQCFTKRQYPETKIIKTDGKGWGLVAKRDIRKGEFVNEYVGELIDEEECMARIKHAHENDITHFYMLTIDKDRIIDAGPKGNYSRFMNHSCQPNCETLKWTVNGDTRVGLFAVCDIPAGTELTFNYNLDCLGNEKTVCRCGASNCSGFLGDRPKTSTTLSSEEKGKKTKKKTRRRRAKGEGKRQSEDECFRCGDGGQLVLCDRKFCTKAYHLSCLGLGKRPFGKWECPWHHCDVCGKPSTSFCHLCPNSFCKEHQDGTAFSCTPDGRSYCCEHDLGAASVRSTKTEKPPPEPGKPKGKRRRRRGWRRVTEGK", "settings": "Substrate:=Nucleosomes", "experimental": "(§1) We next assessed selectivity of MS67 against 22 protein methyltransferases (table S2) and a broad panel of common drug targets including 45 kinases (table S3) and 44 G protein–coupled receptors (GPCR), ion channels, and transporters (table S4). […] We subsequently determined that MS67 had moderate binding affinity (Ki = 1.0 ± 0.8 μM) to Sigma 2 receptor (fig. S10)."}, "[2]": {"target": "T2, SET7/9 (Homo sapiens, UniProt Q8WTS6)", "T2 construct": "gene SETD7", "T2 sequence (Q8WTS6 1-366)": "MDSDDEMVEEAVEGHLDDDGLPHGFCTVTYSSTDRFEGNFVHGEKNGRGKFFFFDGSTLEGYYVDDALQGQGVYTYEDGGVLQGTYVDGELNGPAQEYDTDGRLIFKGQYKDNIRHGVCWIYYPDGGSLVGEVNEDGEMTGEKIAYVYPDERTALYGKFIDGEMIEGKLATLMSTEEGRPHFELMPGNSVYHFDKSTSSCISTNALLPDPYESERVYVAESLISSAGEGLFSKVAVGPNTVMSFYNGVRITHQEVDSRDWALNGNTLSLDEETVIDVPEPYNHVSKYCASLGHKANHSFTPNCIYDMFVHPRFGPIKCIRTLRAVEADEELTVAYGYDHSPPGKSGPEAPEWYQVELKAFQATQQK", "settings": "Substrate:=Core Histone", "experimental": "as §1"}, "[3]": {"target": "SETD2 (Homo sapiens, UniProt Q9BYW2)", "sequence (Q9BYW2 whole entry)": "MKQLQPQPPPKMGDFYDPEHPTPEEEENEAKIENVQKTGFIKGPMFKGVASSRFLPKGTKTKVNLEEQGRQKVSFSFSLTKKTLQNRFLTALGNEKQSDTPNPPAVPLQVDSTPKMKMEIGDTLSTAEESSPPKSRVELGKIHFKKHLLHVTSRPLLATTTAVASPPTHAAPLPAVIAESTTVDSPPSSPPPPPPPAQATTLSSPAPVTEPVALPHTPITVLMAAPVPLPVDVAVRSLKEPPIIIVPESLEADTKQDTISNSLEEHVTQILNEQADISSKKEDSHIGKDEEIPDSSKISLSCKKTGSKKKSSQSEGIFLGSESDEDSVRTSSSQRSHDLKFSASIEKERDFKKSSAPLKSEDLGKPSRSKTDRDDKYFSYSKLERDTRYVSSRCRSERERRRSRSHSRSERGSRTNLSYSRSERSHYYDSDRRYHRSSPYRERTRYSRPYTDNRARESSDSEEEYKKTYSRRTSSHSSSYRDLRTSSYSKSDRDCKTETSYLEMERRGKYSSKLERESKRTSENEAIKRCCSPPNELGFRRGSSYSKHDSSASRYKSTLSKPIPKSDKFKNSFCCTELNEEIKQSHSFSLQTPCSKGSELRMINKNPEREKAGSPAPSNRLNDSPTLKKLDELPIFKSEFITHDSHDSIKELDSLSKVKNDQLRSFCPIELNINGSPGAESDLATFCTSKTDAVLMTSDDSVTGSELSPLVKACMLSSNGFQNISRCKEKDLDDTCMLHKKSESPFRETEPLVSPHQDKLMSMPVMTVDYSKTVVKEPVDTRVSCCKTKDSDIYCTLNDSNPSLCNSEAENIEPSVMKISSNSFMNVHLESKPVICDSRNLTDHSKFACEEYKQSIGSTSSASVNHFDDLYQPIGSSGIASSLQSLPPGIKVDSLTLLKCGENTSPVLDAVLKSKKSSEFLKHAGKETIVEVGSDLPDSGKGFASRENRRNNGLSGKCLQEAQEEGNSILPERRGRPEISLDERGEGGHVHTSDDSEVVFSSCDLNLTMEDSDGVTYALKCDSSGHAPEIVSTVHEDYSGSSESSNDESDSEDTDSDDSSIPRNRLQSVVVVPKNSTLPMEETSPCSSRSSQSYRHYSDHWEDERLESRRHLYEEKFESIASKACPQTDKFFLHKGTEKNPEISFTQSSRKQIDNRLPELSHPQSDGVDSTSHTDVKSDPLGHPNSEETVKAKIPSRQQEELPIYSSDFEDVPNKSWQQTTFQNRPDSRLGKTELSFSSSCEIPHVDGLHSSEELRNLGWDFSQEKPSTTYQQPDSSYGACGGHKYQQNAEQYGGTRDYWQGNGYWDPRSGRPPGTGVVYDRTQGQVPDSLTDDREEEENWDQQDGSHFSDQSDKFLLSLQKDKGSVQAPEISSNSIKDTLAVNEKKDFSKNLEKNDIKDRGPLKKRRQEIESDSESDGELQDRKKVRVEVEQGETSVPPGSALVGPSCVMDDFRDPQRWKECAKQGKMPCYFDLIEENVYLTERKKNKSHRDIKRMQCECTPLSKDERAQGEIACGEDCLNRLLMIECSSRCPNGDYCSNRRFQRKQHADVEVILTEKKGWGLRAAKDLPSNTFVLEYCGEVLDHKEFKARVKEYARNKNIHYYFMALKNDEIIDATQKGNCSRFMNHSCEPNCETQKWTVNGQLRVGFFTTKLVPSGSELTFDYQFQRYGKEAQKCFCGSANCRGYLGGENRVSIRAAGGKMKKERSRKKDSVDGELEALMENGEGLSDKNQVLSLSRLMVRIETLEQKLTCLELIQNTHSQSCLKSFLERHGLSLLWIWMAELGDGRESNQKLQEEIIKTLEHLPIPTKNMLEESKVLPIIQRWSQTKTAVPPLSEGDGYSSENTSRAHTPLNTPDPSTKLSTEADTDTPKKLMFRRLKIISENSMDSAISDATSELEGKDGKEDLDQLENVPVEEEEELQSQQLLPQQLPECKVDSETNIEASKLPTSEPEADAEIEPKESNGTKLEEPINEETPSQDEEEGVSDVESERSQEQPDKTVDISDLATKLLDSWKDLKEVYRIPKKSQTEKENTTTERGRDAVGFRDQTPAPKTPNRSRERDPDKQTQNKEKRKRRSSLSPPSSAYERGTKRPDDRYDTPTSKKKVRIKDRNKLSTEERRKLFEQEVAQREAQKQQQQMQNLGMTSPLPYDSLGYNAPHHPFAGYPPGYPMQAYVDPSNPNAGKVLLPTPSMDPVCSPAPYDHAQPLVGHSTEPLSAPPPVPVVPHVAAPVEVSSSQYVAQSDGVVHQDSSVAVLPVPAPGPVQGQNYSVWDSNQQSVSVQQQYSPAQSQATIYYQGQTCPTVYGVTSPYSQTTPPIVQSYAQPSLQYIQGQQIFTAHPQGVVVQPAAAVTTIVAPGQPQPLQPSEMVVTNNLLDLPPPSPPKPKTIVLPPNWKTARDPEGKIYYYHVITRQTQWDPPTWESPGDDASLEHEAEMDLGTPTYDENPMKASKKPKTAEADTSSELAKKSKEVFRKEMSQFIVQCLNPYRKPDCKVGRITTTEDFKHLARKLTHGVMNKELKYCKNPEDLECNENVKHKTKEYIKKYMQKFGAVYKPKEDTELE", "settings": "Substrate:=Nucleosomes", "experimental": "as §1"}, "[4]": {"settings": "read-out: Enzyme % Activity (relative to DMSO controls) / MS67 / 10 / Data 1:"}, "[5]": {"settings": "read-out: Enzyme % Activity (relative to DMSO controls) / MS67 / 10 / Data 2:"}}, "note": "Like-named read-outs stand apart in the source and are kept apart here.", "data": [{"smiles": "Cc1ncsc1-c1ccc([C@H](C)NC(=O)[C@@H]2C[C@@H](O)CN2C(=O)[C@@H](NC(=O)CNC(=O)c2ccc(F)c(-c3ccc(N4C[C@@H](C)N(C)[C@@H](C)C4)c(NC(=O)c4c[nH]c(=O)cc4C(F)(F)F)c3)c2)C(C)(C)C)cc1", "note": "[MS67]", "values": [{"measurement": "remaining activity at 10 µM", "setting": "[1]; [4]", "result": 93, "unit": "%"}, {"measurement": "remaining activity at 10 µM", "setting": "[1]; [5]", "result": 107, "unit": "%"}, {"measurement": "remaining activity at 10 µM", "setting": "[2]; [4]", "result": 99.7, "unit": "%"}, {"measurement": "remaining activity at 10 µM", "setting": "[2]; [5]", "result": 92, "unit": "%"}, {"measurement": "remaining activity at 10 µM", "setting": "[3]; [4]", "result": 112, "unit": "%"}, {"measurement": "remaining activity at 10 µM", "setting": "[3]; [5]", "result": 110, "unit": "%"}]}]}
